The record followed here is patent US8278452B2, “Heterocyclic compounds and compositions as c-kit and PDGFR kinase inhibitors” (IRM LLC, priority 2008, dated 2012).

SMILES strings stand for the structures.

Assay [1] concerns Mo7e cells which endogenously express c-kit. As to the kind of experiment: Mo7e assay: inhibition of SCF dependent proliferation (MTT). Format: cell-based. A digest of the protocol: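 Mo7e cells stimulated with human recombinant SCF and exposed to two-fold serial compound dilutions from a top concentration of 10 μM. After 48 h at 37 °C, viability measured by MTT colorimetric assay; IC50 derived.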

In the next assay the test system is Human TG/HA-VSMC cells. As to the kind of experiment: Human TG/HA-VSMC proliferation assay (PDGF-BB, CellTiter-Glo). Format: cell-based. The following applies: Biological data table, PDGF-BB stimulated. The protocol:
Human TG/HA-VSMC Proliferation Assay
Human TG/HA-VSMC cells (ATCC) were resuspended in DMEM supplemented with 1% FBS and 30 ng/mL recombinant human PDGF-BB at 60,000 cells/mL. The cells were aliquoted into 384 well plates at 50 μL/well and incubated for 4 hours at 37° C. in a humidified incubator in the presence of 5% carbon dioxide. 0.5 μL of test compound diluted in DMSO was added to each well. The plates were returned to the incubator for a further 68 hours. 25 μL of CellTiter-Glo (Promega) was added to each well and the plates were incubated on the bench for 15 minutes. Luminescence was then read using a CLIPR CCD camera (Molecular Devices).
(In ATP-based viability assays light output follows the ATP content of the culture.)

Where [2] appears, read: Mo7e, Biological data table (selectivity c-kit over PDGFR).
[3] abbreviates: Table 1, SCF stimulated Mo7e cells, 48 hours, MTT.

For orientation: IC50 means the concentration at which inhibition is half-maximal.

Consider `Cc1cc2c(cn1)cc(-c1cc(Nc3cc(-c4nccs4)no3)ccc1C)c(=O)n2C` [Compound F1, 1,7-dimethyl-3-(2-methyl-5-(3-(thiazol-2-yl)isoxazol-5-ylamino)phenyl)-1,6-naphthyridin-2(1H)-one], for which the figures for the 50% inhibitory concentration (IC50) (in assay [1] (setting [2]); in assay [1] (setting [3]); in the assay with Human TG/HA-VSMC cells) were 111 nM, 111 nM and 2140 nM, respectively. `Cc1cc2c(cn1)cc(-c1cc(Nc3cc(-c4nccs4)on3)ccc1C)c(=O)n2C` [Compound D9, 1,7-dimethyl-3-(2-methyl-5-(5-(thiazol-2-yl)isoxazol-3-ylamino)phenyl)-1,6-naphthyridin-2(1H)-one]: the concentration for half-maximal inhibition (IC50) turned out to be 141 nM in assay [1] (setting [2]), 141 nM in assay [1] (setting [3]) and 1070 nM in the assay on Human TG/HA-VSMC cells. Turning to `COc1ccc(-c2nc(Nc3ccc(C)c(-c4cc5cnc(C)cc5n(C)c4=O)c3)no2)cc1` [Compound A14, 3-(5-{[5-(4-methoxyphenyl)-1,2,4-oxadiazol-3-yl]amino}-2-methylphenyl)-1,7-dimethyl-1,2-dihydro-1,6-naphthyridin-2-one], the figures for the IC50 (in assay [1] (setting [2]); in assay [1] (setting [3]); in the assay with Human TG/HA-VSMC cells) were 14 nM, 14 nM and 1820 nM, respectively. Turning to `Cc1cc2c(cn1)cc(-c1cc(Nc3nc(-c4ccccn4)no3)ccc1C)c(=O)n2C` [Compound E2, 1,7-dimethyl-3-(2-methyl-5-(3-(pyridin-2-yl)-1,2,4-oxadiazol-5-ylamino)phenyl)-1,6-naphthyridin-2(1H)-one], the results for the half-maximal inhibitory concentration (IC50) (in assay [1] (setting [2]); in assay [1] (setting [3]); with Human TG/HA-VSMC cells) were 256 nM, 256 nM and 2360 nM, respectively.

Turning to `Cc1ccc(-c2nnc(Nc3ccc(C)c(-c4cc5cnc(C)cc5n(C)c4=O)c3)o2)cc1` [Compound B1, 1,7-dimethyl-3-(2-methyl-5-{[5-(4-methylphenyl)-1,3,4-oxadiazol-2-yl]amino}phenyl)-1,2-dihydro-1,6-naphthyridin-2-one], the figures for the IC50 (in assay [1] (setting [2]); in assay [1] (setting [3]); with Human TG/HA-VSMC cells) were 76 nM, 76 nM and 2260 nM, respectively. Take `Cc1cc2c(cn1)cc(-c1cc(Nc3nnc(-c4ccccc4)[nH]3)ccc1C)c(=O)n2C` [Compound C6, 1,7-dimethyl-3-(2-methyl-5-(5-phenyl-4H-1,2,4-triazol-3-ylamino)phenyl)-1,6-naphthyridin-2(1H)-one]: the IC50 in assay [1] (setting [2]) worked out at 335 nM; in assay [1] (setting [3]) it was 335 nM; in the assay on Human TG/HA-VSMC cells, 3390 nM. With `Cc1cc2c(cn1)cc(-c1cc(Nc3noc(C4CC4)n3)ccc1C)c(=O)n2C` [Compound A3, 3-(5-(5-cyclopropyl-1,2,4-oxadiazol-3-ylamino)-2-methylphenyl)-1,7-dimethyl-1,6-naphthyridin-2(1H)-one], the half-inhibitory concentration (IC50) in assay [1] (setting [2]) is 16 nM; in assay [1] (setting [3]), 16 nM; with Human TG/HA-VSMC cells, 506 nM.

Compound `Cc1cc2c(cn1)cc(-c1cc(Nc3nnc(C4CCCC4)[nH]3)ccc1C)c(=O)n2C` [Compound C1, 3-(5-(5-cyclopentyl-4H-1,2,4-triazol-3-ylamino)-2-methylphenyl)-1,7-dimethyl-1,6-naphthyridin-2(1H)-one] returned a half-maximal inhibitory concentration (IC50) in assay [1] (setting [3]) of 120 nM. In the case of `Cc1cc2c(cn1)cc(-c1cc(Nc3noc(-c4ncccc4C)n3)ccc1C)c(=O)n2C` [Compound A79, 1,7-dimethyl-3-(2-methyl-5-{[5-(3-methylpyridin-2-yl)-1,2,4-oxadiazol-3-yl]amino}phenyl)-1,2-dihydro-1,6-naphthyridin-2-one], the IC50 in assay [1] (setting [3]) amounted to 94 nM. In assay [1] (setting [3]), `Cc1cnc(-c2nc(Nc3ccc(C)c(-c4cc5cnc(C)cc5n(C)c4=O)c3)no2)cn1` [Compound A71, 1,7-dimethyl-3-(2-methyl-5-{[5-(5-methylpyrazin-2-yl)-1,2,4-oxadiazol-3-yl]amino}phenyl)-1,2-dihydro-1,6-naphthyridin-2-one] showed an IC50 of 424 nM. Regarding `Cc1cc2c(cn1)cc(-c1cc(Nc3noc([C@@]4(C)CCCO4)n3)ccc1C)c(=O)n2C` [Compound A97, 1,7-dimethyl-3-[2-methyl-5-({5-[(2R)-2-methyloxolan-2-yl]-1,2,4-oxadiazol-3-yl}amino)phenyl]-1,2-dihydro-1,6-naphthyridin-2-one], the midpoint of inhibition in assay [1] (setting [3]), the IC50, lay at 160 nM. Compound `Cc1cc2c(cn1)cc(-c1cc(Nc3noc(-c4nc(C)oc4C)n3)ccc1C)c(=O)n2C` [Compound A45, 3-(5-{[5-(2,5-dimethyl-1,3-oxazol-4-yl)-1,2,4-oxadiazol-3-yl]amino}-2-methylphenyl)-1,7-dimethyl-1,2-dihydro-1,6-naphthyridin-2-one] displayed an IC50 in assay [1] (setting [3]) of 263 nM. Same read-out and setting: the result for `Cc1cc2c(cn1)cc(-c1cc(Nc3nnc(CC(C)(C)C)[nH]3)ccc1C)c(=O)n2C` [Compound C5, 3-(5-{[5-(2,2-dimethylpropyl)-4H-1,2,4-triazol-3-yl]amino}-2-methylphenyl)-1,7-dimethyl-1,2-dihydro-1,6-naphthyridin-2-one] reads 320 nM; that for `Cc1ccc(-c2nc(Nc3ccc(C)c(-c4cc5cnc(C)cc5n(C)c4=O)c3)no2)nc1` [Compound A102, 1,7-dimethyl-3-(2-methyl-5-{[5-(5-methylpyridin-2-yl)-1,2,4-oxadiazol-3-yl]amino}phenyl)-1,2-dihydro-1,6-naphthyridin-2-one], 113 nM. On the same count and under the same terms, the result for `Cc1cc2c(cn1)cc(-c1cc(Nc3noc([C@H]4C[C@@](C)(O)C4)n3)ccc1C)c(=O)n2C` [Compound A101, 3-(5-{[5-(3-hydroxy-3-methylcyclobutyl)-1,2,4-oxadiazol-3-yl]amino}-2-methylphenyl)-1,7-dimethyl-1,2-dihydro-1,6-naphthyridin-2-one] reads 205 nM. Still for that read-out and setting: the result for `Cc1ccc(Nc2noc(-c3ccccc3)n2)cc1-c1cc2c[n+]([O-])c(C)cc2n(C)c1=O` [Compound A86, 1,7-dimethyl-3-{2-methyl-5-[(5-phenyl-1,2,4-oxadiazol-3-yl)amino]phenyl}-6-oxido-2-oxo-1,2-dihydro-1,6-naphthyridin-6-ium] reads 216 nM; that for `COc1ccc(-c2nnc(Nc3ccc(C)c(-c4cc5cnc(C)cc5n(C)c4=O)c3)o2)cc1` [Compound B2, 3-(5-{[5-(4-methoxyphenyl)-1,3,4-oxadiazol-2-yl]amino}-2-methylphenyl)-1,7-dimethyl-1,2-dihydro-1,6-naphthyridin-2-one], 85 nM; that for `Cc1cc2c(cn1)cc(-c1cc(Nc3noc(-c4ccc(Cl)nc4)n3)ccc1C)c(=O)n2C` [Compound A1, 3-(5-{[5-(6-chloropyridin-3-yl)-1,2,4-oxadiazol-3-yl]amino}-2-methylphenyl)-1,7-dimethyl-1,2-dihydro-1,6-naphthyridin-2-one], 100 nM. `Cc1cc2c(cn1)cc(-c1cc(Nc3noc(-c4ccc(C)nc4Cl)n3)ccc1C)c(=O)n2C` [Compound A48, 3-(5-{[5-(2-chloro-6-methylpyridin-3-yl)-1,2,4-oxadiazol-3-yl]amino}-2-methylphenyl)-1,7-dimethyl-1,2-dihydro-1,6-naphthyridin-2-one]: the 50% inhibitory concentration (IC50) in assay [1] (setting [3]) was 361 nM. Turning to `Cc1cc2c(cn1)cc(-c1cc(Nc3noc(C4CCCC4)n3)ccc1C)c(=O)n2C` [Compound A15, 3-{5-[(5-cyclopentyl-1,2,4-oxadiazol-3-yl)amino]-2-methylphenyl}-1,7-dimethyl-1,2-dihydro-1,6-naphthyridin-2-one], half-maximal inhibition in assay [1] (setting [3]) (IC50) required 28 nM. Take `Cc1cc2c(cn1)cc(-c1cc(Nc3noc(-c4ccc(F)cc4)n3)ccc1C)c(=O)n2C` [Compound A24, 3-(5-{[5-(4-fluorophenyl)-1,2,4-oxadiazol-3-yl]amino}-2-methylphenyl)-1,7-dimethyl-1,2-dihydro-1,6-naphthyridin-2-one]: the IC50 in assay [1] (setting [3]) is 36 nM. In assay [1] (setting [3]), `CCC(CC)c1nc(Nc2ccc(C)c(-c3cc4cnc(C)cc4n(C)c3=O)c2)no1` [Compound A31, 1,7-dimethyl-3-(2-methyl-5-{[5-(pentan-3-yl)-1,2,4-oxadiazol-3-yl]amino}phenyl)-1,2-dihydro-1,6-naphthyridin-2-one] displayed an IC50 of 105 nM. On the same count and under the same terms, the result for `Cc1cc2c(cn1)cc(-c1cc(Nc3noc(C4(C)COC4)n3)ccc1C)c(=O)n2C` [Compound A65, 1,7-dimethyl-3-(2-methyl-5-{[5-(3-methyloxetan-3-yl)-1,2,4-oxadiazol-3-yl]amino}phenyl)-1,2-dihydro-1,6-naphthyridin-2-one] reads 413 nM.
